{"source": "paper PMC11579512", "about": "“Deoxybouvardin-glucoside induces apoptosis in non-small cell lung cancer cells by targeting EGFR/MET and AKT signaling pathway” (EXCLI Journal, 2024)", "system": "p-MET (Y1234/1235)", "experiment": "Western blot p-MET (Y1234/1235) in HCC827 and HCC827GR cells", "assay_type": "cell-based, human", "conditions": "DBG 3, 6, 12 nM, 48 h", "procedure": "HaCaT cells were grown in DMEM, whereas HCC827 and HCC827GR cells were grown in RPMI 1640. All culture media were supplemented with FBS (10 %) and P/S (1 %), and the cells were grown at 37 °C in 5 % CO2.\nCells were lysed in RIPA buffer, and protein concentration was determined using a Bio-Rad DC Protein Assay kit (Bio-Rad, Hercules, CA, USA). Protein samples from the cell lysates were resolved by sodium dodecyl sulfate-polyacrylamide gel electrophoresis and then transferred onto polyvinylidene fluoride membranes. The membranes were blocked with 3 % or 5 % skim milk and then incubated at 4 °C overnight with the indicated primary antibodies, followed by the corresponding horseradish peroxidase-conjugated secondary antibodies at RT for 2 h. Protein bands were visualized using western blotting luminol reagent solution and ImageQuant LAS 500 (GE Healthcare, Uppsala, Sweden). The density of the bands was quantified using ImageJ software (NIH, Bethesda, MD, USA).", "data": [{"molecule": "COc1ccc(C[C@H]2C(=O)N[C@@H](C)C(=O)N(C)[C@H]3Cc4ccc(cc4)Oc4cc(ccc4O[C@@H]4O[C@H](CO)[C@@H](O)[C@H](O)[C@H]4O)C[C@@H](C(=O)N[C@H](C)C(=O)N[C@@H](C)C(=O)N2C)N(C)C3=O)cc1", "note": "[DBG, deoxybouvardin glucoside]", "values": [{"measurement": "phosphorylation level of MET", "result": "decreased"}]}]}
